Test results as given in PMC7515946, “Targeting of Perforin Inhibitor into the Brain Parenchyma Via a Prodrug Approach Can Decrease Oxidative Stress and Neuroinflammation and Improve Cell Survival” (Molecular Neurobiology, 2020).
pIC50: −log10 of the molar value.

What was measured:
LAT1 = system: LAT1; design: method as in PMID 31610281; conditions: human breast adenocarcinoma cells (MCF-7); read-out: IC50 of [14C]-L-leucine uptake (LAT1 binding) in MCF-7 cells; cited from earlier work
[1] = design: method as in PMID 27266990; conditions: during 5 h incubation; cited from earlier work
[2] = design: method as in PMID 31492955; conditions: neurons, astrocytes, and microglia homogenates; cited from earlier work
[3] = design: method as in PMID 26705152; conditions: cited from earlier work
[4] = design: method as in PMID 31492955; conditions: cited from earlier work
[5] = target: T1, purified human β-site amyloid precursor protein (APP) cleaving enzyme 1 (BACE1) (Homo sapiens, UniProt P56817); assay: BACE1 FRET inhibition assay; assay type: biochemical; conditions: 1 and 10 μM, respectively, 30 min
T1 construct: purchased AnaSpec, Inc. (Fremont, CA, USA), SensoLyte 520 BACE1 Assay kit
Text: A fluorometric assay was used to screen the inhibitory effect of the studied compounds on purified human β-site amyloid precursor protein (APP) cleaving enzyme 1 (BACE1) using a fluorescence resonance energy transfer (FRET) peptide technique (SensoLyte© 520 BACE1 Assay kit, AnaSpec, Inc., Fremont, CA, USA) according to the manufacturer’s protocol. […] The sequence of the FRET peptide has been derived from the β-secretase cleavage site of β-amyloid precursor protein (APP) with Swedish mutation, which enhances β-secretase to process APP resulting in an early onset of AD. Thus, active β-secretase cleaved the FRET substrate into two separate fragments resulting in the release of HiLyte™ Fluor 488 fluorescence that was measured by the Envision plate reader (EnVision, Perkin Elmer, Waltham, MA, USA) at λex 490 nm and λem 520 nm.

T1 sequence (P56817 22-501 limits assumed): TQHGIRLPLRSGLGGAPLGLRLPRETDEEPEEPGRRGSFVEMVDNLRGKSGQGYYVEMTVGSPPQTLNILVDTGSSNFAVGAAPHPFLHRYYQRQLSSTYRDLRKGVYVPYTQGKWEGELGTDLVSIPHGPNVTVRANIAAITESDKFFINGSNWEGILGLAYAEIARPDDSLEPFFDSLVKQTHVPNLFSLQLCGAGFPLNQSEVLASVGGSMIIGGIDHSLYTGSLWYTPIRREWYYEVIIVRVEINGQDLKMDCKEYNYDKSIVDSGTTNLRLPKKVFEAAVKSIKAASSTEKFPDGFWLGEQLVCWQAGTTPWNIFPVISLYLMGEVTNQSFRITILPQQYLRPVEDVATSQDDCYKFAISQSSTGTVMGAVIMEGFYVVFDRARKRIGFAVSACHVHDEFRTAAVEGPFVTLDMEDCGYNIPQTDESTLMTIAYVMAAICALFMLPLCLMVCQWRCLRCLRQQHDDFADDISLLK

SMILES | pIC50 (LAT1) | Prodrug bioconverted in mouse brain S9 subcellular fraction [1] | Half-lives in brain cell homogenates [2] [h] | Stability in human plasma [3] | Bioconversion half-life in primary mouse astrocyte homogenate [4] | Inhibition of BACE1 activity [5]
N[C@H](Cc1cccc(C(=O)OCc2ccc(-c3ccc(-c4ccc5c(c4)COC5=O)s3)cc2)c1)C(=O)O [PFI-PD] | 5.81 | approximately 50% | 4 to 6 | completely stable | approximately 6 h | 
O=C1OCc2cc(-c3ccc(-c4ccc(CO)cc4)s3)ccc21 [PFI] |  |  |  |  |  | 71–96%
